Measurements published in patent US20260234295A1, “ULTRALOW MOLECULAR WEIGHT HEPARIN” (The University of North Carolina at Chapel Hill, priority 2022, published 2026).
Where “and” joins values, the source holds several entries; their conditions need not be identical. Equal entries are not always repeated.

Assays:
Human FXa (Homo sapiens) = test system: T1, Human FXa (Homo sapiens); assay: Anti-FXa activity, chromogenic substrate S-2765 with antithrombin; assay type: biochemical; conditions: for anti-FXa activity after incubation with heparanase: after heparanase digestion, digested byproduct; for IC50: human FXa, antithrombin, S-2765, read-out: anti-FXa activity, calculated IC50 (converted)
T1 construct: Human FXa (Enzyme Research Laboratories, South Bend, Indiana, United States of America); purchased Enzyme Research Laboratories
T1 sequence (P01008 33-464): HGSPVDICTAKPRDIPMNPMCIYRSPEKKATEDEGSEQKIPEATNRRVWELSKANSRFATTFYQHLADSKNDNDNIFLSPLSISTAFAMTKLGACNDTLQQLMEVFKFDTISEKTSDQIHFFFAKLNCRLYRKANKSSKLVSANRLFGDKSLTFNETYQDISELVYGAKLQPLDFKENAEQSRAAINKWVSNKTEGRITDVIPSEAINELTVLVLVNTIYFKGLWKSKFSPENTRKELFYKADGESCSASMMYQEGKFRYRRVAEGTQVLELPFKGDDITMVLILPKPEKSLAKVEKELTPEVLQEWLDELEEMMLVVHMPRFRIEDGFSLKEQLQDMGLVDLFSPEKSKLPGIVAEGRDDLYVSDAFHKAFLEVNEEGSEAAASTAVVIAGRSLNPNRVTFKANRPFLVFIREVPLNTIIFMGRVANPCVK
Description: Human FXa (Enzyme Research Laboratories, South Bend, Indiana, United States of America) was diluted in phosphate buffered saline (PBS) to 50 U/mL. Antithrombin was diluted to 0.03 mg/mL in PBS with 1 mg/mL of bovine serum albumin (BSA). The chromogenic substrate, S-2765 (Diapharma, Westchester, Ohio, United States of America) was diluted to 1 mg/mL in water. Heparin oligosaccharides were dissolved in PBS at various concentrations (7 to 3600 ng/mL). A reaction mixture including 60 μL of antithrombin and 24 μL of a solution containing a heparin oligosaccharide was incubated at room temperature for 3 min. FXa (100 μL) was then added, which was followed after a 2 min incubation at room temperature by the addition of 30 μL of chromogenic substrate, S-2765. The absorbance of the mixture was measured at 405 nm for 5 min and plotted against reaction time. The initial reaction rate as a function of oligosaccharide concentration was used to calculate IC50.

tail vein bleeding = assay: Tail vein transection bleeding time; assay type: in vivo, C57BL/6 mice
Description: The effect of test drug on bleeding time was assessed in a murine tail vein transection model (46). Sterile saline (n=5), HR 7-mer (12 μg/g, n=5) or enoxaparin (4 μg/g, n=7) was administered subcutaneously. Mice were anesthetized with ketamine and xylazine by intraperitoneal injection and placed on a warming mat at 37° C. Either 1 hour or 4 hours after administration of HR 7-mer or enoxaparin, respectively, the lateral tail vein was transected with a number 11 scalpel blade at a tail width of 2.3 mm and immediately submerged in PBS at 37° C. The bleeding time was determined at that instant when bleeding had ceased for 30 seconds. Animals were excluded if arterial bleeding was present.

bovine FXa = target: T2, bovine FXa; assay: ACTICHROME heparin activity assay, FXa inhibition with human antithrombin; assay type: biochemical; conditions: ACTICHROME kit, read-out: FXa activity, calculated 50% inhibitory concentration (IC50) (converted)
T2 construct: purchased BioMedica Diagnostics
T2 sequence (P01008 33-464): as above
Description: Data shown as mean standard deviation. Briefly, varying concentrations of HR 7-mer, enoxaparin, and fondaparinux were prepared in phosphate-buffered saline (PBS). A total of 5 microliters (μL) of each sample was added to each well, followed by the addition of 40 μL of human antithrombin for 2 minutes (min) at 37 degrees Celsius (° C.). A total of 40 μL of bovine FXa stock solution was then added and incubated for 1 min at 37° C., followed by the addition of 40 μL of chromogenic substrate sold under the tradename SPECTROZYME® FXa (BioMedica Diagnostics, Windsor, Canada). After a 5 min incubation period at 37° C., the reaction was terminated by the addition of 40 μL of glacial acetic acid. Absorbance was measured at 405 nanometers (nm) and results presented as percent inhibition of FXa activity.

Recombinant heparanase = target: T3, Recombinant heparanase (Homo sapiens, UniProt Q9Y251); assay: Incubation of heparin oligosaccharides with recombinant heparanase, HPLC and LC-MS analysis; assay type: in vitro ADME; conditions: overnight incubation with heparanase, 37° C., pH 6.0
T3 construct: made in house; host or cells: insect cells (baculovirus expression system)
T3 sequence (Q9Y251 158-543 limits assumed): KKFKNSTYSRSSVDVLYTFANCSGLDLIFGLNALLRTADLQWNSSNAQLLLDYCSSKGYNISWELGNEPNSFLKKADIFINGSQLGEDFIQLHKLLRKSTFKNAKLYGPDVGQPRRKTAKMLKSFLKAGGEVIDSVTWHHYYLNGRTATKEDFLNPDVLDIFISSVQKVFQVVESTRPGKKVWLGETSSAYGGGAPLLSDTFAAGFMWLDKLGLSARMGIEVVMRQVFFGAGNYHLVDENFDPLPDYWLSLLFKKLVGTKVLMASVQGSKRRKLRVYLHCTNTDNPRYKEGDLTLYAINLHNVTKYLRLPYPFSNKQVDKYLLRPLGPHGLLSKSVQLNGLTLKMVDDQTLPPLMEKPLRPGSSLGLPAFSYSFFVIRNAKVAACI
T3 sequence (Q9Y251 36-109 limits assumed): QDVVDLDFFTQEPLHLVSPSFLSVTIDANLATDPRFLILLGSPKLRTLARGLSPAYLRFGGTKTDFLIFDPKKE
Description: Recombinant heparanase was expressed in insect cells using the baculovirus expression system and purified by a heparin-Sepharose column, as previously described (40). Heparin oligosaccharides, HS 6-mer (20 μg) or HR 7-mer (20 μg), were incubated overnight at 37° C. in 250 μL of MES (50 mM, pH 6.0) in the presence of heparanase (2 μg for 1× heparanase digestion, or 20 μg for 10× heparanase digestion).
High performance liquid chromatography (HPLC) analysis was conducted with a strong anion exchange column (Propac™ PA1 column, 10 μm, 9 mm×250 mm, Thermo Fisher, Waltham, MA) using a Shimadzu Prominence UFLC20A system (Shimadzu Corporation, Columbia, MD) with a UV detector set at 310 nm. A linear gradient was used for analytical purposes and included a solvent A: 20 mM NaAcO (pH 5.0); and solvent B: 2 M NaCl with 20 mM NaAcO (pH 5.0): 0-3 min: 0-80% B, 3.1-23 min: 80-100% B at a flow rate of 2 mL/min. A total of 5-10 μg of oligosaccharides was injected per run.
LC-MS/MS analysis of heparanse digested oligosaccharides was implemented on a Vanquish Flex UHPLC system (Thermo Fisher, Waltham, MA) coupled with a TSQ Fortis triple-quadrupole mass spectrometer. The ACQUITY Glycan BEH Amide column ([…], 2.1×150 mm; Waters) was used at 60° C. The mobile phase A was 50 mM ammonium formate in water (pH 4.4) and mobile phase B was acetonitrile. […]

[1] = test system: non-occlusive venous thrombosis; assay: Murine model of non-occlusive venous thrombosis (electrolytic injury of the inferior vena cava); assay type: in vivo, C57BL/6 mice
Description: Heparin-based drug efficacy was evaluated in a preclinical mouse model of non-occlusive venous thrombosis (46). HR 7-mer was administered subcutaneously (12 μg/g, n=5) to male C57BL/6 mice (8-12 weeks of age) 1 hour prior to electrolytic injury and 24 hours after injury. Enoxaparin was administered subcutaneously (4 μg/g, n=5) 4 hours prior and 24 hours after electrolytic injury as a clinically relevant reference and an additional control group enrolled with saline vehicle administered subcutaneously (n=6). […] Venous side branches were ligated or cauterized, while posterior branches were left patent. A 25-gauge stainless steel needle, attached to a silver-coated copper wire was inserted into the exposed caudal vena cava and positioned against the anterior wall (anode). A second wire was implanted subcutaneously to complete the circuit (cathode) and a 250 μAmps current applied for 15 min. Subsequently, the needle was removed and a cotton swab held in gentle contact with the puncture site to prevent bleeding. The vena cava and associated thrombus, immediately below the renal veins to just above the bifurcation, was excised 48 hours after injury for determination of wet thrombus weight.

anti-FXa activity after incubation with heparanase (Human FXa (Homo sapiens))	IC50 (Human FXa (Homo sapiens))	bleeding time (tail vein bleeding; enoxaparin 4 μg/g SC, 4 hours, HR 7-mer 12 μg/g SC, 1 hour, saline vehicle 81±3 sec) [s]	Avg. bleeding time (tail vein bleeding; enoxaparin 4 μg/g, 4 hr pre, SC, HR 7-mer 12 μg/g, 1 hr pre) [s]	IC50 (bovine FXa) [nM]	SMILES	susceptibility to heparanase mediated degradation (HPLC, LC-MS) (Recombinant heparanase)	reduction in thrombus formation as compared to saline vehicle ([1]; 48 hours after injury, HR 7-mer 12 μg/g SC 1 hour prior and 24 hours after, enoxaparin 4 μg/g SC 4 hours prior and 24 hours after) [%]	Avg. IVC weight ([1]; wet thrombus weight 48 hours after injury, enoxaparin 4 μg/g, 4 hr pre, SC, HR 7-mer 12 μg/g, 1 hr pre, SC) [mg]
preservation of anti-FXa activity	193 nM				O=C(O)C1OC(Oc2ccc([N+](=O)[O-])cc2)C(O)C(O)C1OC1OC(COS(=O)(=O)O)C(OC2OC(C(=O)O)C(OC3OC(COS(=O)(=O)O)C(OC4OC(C(=O)O)C(OC5OC(COS(=O)(=O)O)C(O)C(O)C5NS(=O)(=O)O)C(O)C4OS(=O)(=O)O)C(OS(=O)(=O)O)C3NS(=O)(=O)O)C(O)C2OS(=O)(=O)O)C(O)C1NS(=O)(=O)O (stereo not drawn) [Compound 6-mer-D]			
	95.7 nM and 96 nM	143 ± 18	143 ± 18	3870	O=C(O)C1OC(OC2C(COS(=O)(=O)O)OC(OC3C(C(=O)O)OC(OC4C(COS(=O)(=O)O)OC(OC5C(C(=O)O)OC(OC6C(COS(=O)(=O)O)OC(OC7C(C(=O)O)OC(Oc8ccc([N+](=O)[O-])cc8)C(O)C7O)C(NS(=O)(=O)O)C6O)C(OS(=O)(=O)O)C5O)C(NS(=O)(=O)O)C4OS(=O)(=O)O)C(OS(=O)(=O)O)C3O)C(NS(=O)(=O)O)C2O)C(O)C(O)C1O (stereo not drawn) [HR 7-mer]	loss of GlcA	40.3±3.9	18.8 ± 1.2
completely lost	21.2 nM and 21 nM				O=C(O)C1OC(OC2C(COS(=O)(=O)O)OC(OC3C(C(=O)O)OC(OC4C(COS(=O)(=O)O)OC(OC5C(C(=O)O)OC(Oc6ccc([N+](=O)[O-])cc6)C(O)C5O)C(NS(=O)(=O)O)C4O)C(OS(=O)(=O)O)C3O)C(NS(=O)(=O)O)C2OS(=O)(=O)O)C(O)C(O)C1OC1OC(COS(=O)(=O)O)C(O)C(O)C1NS(=O)(=O)O (stereo not drawn) [HS 6-mer, reference compound]	cleavage of the -[GlcA-GlcNS3S6S]- disaccharide to afford a tetrasaccharide (4-mer-D)		
